Assay results: patent US6682925B1, “Streptomyces strain with insecticidal activity and method of using as an insecticide” (priority 2000, dated 2004)

How the values were obtained:
Assay type in all cases: cell-based
Parameters in all cases: key: 5: five indicated growth equal to the water control; 1: a rating of one indicated the complete absence of growth; Index values two (2) through four (4) represent intermediate levels of sporulation and growth; 3: Index values two (2) through four (4) represent intermediate levels of sporulation and growth; Index values two (2) through four (4) represent intermediate levels of sporulation and growth; zero (0) indicates a failed or unnecessary test
Settings in all cases: chemical control, all independent replicated tests
Pseudomonas syringae = assay: agar overlay plant pathogen growth assay, PSTO
Protocol: (§1) The novel Streptomyces galbus strain was grown for testing against plant pathogens in the following manner. The isolated microbe was initially fermented in three distinct actinomycete cultivation media. Media 38 was composed of 2 g/L tomato paste, 2 g/L oat flour, and 1.0 g/L sea salts. Media 31 was composed of 45 g/L oat flour, 2 g/L yeast extract, 6 g/L KH2PO4, and 4.8 g/L Na2HPO4, pH 7. Media 6 was composed of 20 g/L soluble starch, 10 g/L dextrose, 5 g/L yeast extract, 5 g/L N-Z amineA, and 1 g/L CaCO3.
(§2) The microbe was picked from tomato-oat flour agar (2 g/L tomato paste, 2 g/L oat flour, and 20 g/L agar) and introduced to 50 ml conical tubes containing 12 ml of sterile fermentation media capped with a foam plug. The inoculated tubes were incubated at 27±3° C., in an orbital shaker for six days. […]
(§3) The following pathogen/chemical pairs were tested: Alternaria brassisicola (ABRA Benomyl), Botrytris cinerea (BOTC/Benomyl), Monilinuafructicola (MONF/Benomyl), Phytophthora capsici (PCAP/Metalaxyl), Pseudomonas syringae (PSTO/Gentamycin), and Colletotrichum coccoides (COLC/Chlorothalonil). […] The chemical controls scored index ratings of one (1) in all of the independent replicated tests; and media blanks had ratings of five (5).

Colletotrichum coccoides = assay: agar overlay plant pathogen growth assay, COLC
Protocol: as §1, §2, §3

Botrytris cinerea = assay: agar overlay plant pathogen growth assay, BOTC
Protocol: as §1, §2, §3

Monilinuafructicola = assay: agar overlay plant pathogen growth assay, MONF
Protocol: as §1, §2, §3

Alternaria brassisicola = assay: agar overlay plant pathogen growth assay, ABRA
Protocol: as §1, §2, §3

Phytophthora capsici = assay: agar overlay plant pathogen growth assay, PCAP
Protocol: as §1, §2, §3

Gentamycin
PSTO pathogen growth index rating (Pseudomonas syringae): 1

N#Cc1c(Cl)c(Cl)c(Cl)c(C#N)c1Cl [Chlorothalonil]
COLC pathogen growth index rating (Colletotrichum coccoides): 1

CCCCNC(=O)n1c(NC(=O)OC)nc2ccccc21 [Benomyl]
BOTC pathogen growth index rating (Botrytris cinerea): 1 | MONF pathogen growth index rating (Monilinuafructicola): 1 | ABRA pathogen growth index rating (Alternaria brassisicola): 1

COCC(=O)N(c1c(C)cccc1C)C(C)C(=O)OC (stereo not drawn) [Metalaxyl]
PCAP pathogen growth index rating (Phytophthora capsici): 1
